Data published in the METLIN SMRT retention time set (Domingo-Almenara et al. 2019).

Test: gradient 5% acetonitrile 3 min, to 50% in 2 min, to 85% in 15 min, held 3 min, 100 µL/min
Conditions: column: Zorbax Extend-C18 2.1 x 50 mm; eluents: water / acetonitrile, 0.1% formic acid
In short: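 Retention times come from adduct peaks that were picked computationally and then checked by hand. The standards, pure and pooled in mixtures of ~100 molecules, were run on a Zorbax Extend-C18 column (2.1 × 50 mm, 1.8 μm) at 100 μL/min with water and acetonitrile, each with 0.1% formic acid. Detection was by quadrupole time-of-flight mass spectrometry in positive and negative ionization mode, with a dead volume of 40 μL and a dwell volume of 900 μL.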

RP-LC retention time [s] | SMILES
657 | O=C(Cn1ccc2ccccc21)NCc1n[nH]c(=O)c2ccccc12
623 | Cc1ccc2cc(CCC(=O)NCCCN3CCCC3=O)c(=O)[nH]c2c1
866 | COc1ccc(OC)c(S(=O)(=O)N2CCC(C)(c3noc(C)n3)CC2)c1
656 | CN(CC1CCOC1)C(=O)Nc1ccccc1F (stereo unspecified)
964 | CCOc1ccc(-c2noc(Cn3nc(-c4ccccc4F)ccc3=O)n2)cc1OC
611 | CCOc1cc(=O)n2c(c1C(=O)NC1CC1)CCCCC2
609 | O=C(c1ccc(N2CCCCS2(=O)=O)cc1)N1CCN(C(=O)c2ccco2)CC1
1000 | Cc1cccc2c(=O)n(C3CCN(S(=O)(=O)c4cc(F)cc(F)c4)CC3)cnc12
786 | O=C(Cn1nc2c(N3CCCCCC3)nccn2c1=O)Nc1ccc(F)c(Cl)c1
1050 | CCn1c(C(=O)NCCCc2ccccc2)cc2sccc21
808 | COC(=O)c1c(NCc2ccccc2F)c2cccc(Cl)c2[nH]c1=O
873 | CC(=O)Nc1cccc(-c2nc(-c3ccc4c(c3)oc(=O)n4C(C)C)no2)c1C
859 | Cc1ccc(CN2CCN(CC(=O)NCc3cccnc3)C(=O)C2=O)cc1
846 | CCOc1ccccc1NC(=O)N1CCC([C@@H]2[C@H](OC)C(=O)N2C(C)C)CC1
678 | CCc1nc(-c2ccnc(N3CCOCC3)c2)no1
604 | O=C(NCCc1ccccc1)N(C1CCOCC1)C1CCN(Cc2cccc(F)c2)CC1
866 | O=C(c1ccc2cc[nH]c2c1)N1CCC(c2nc(-c3ccccc3)no2)C1 (stereo unspecified)
815 | Cc1ccccc1NC(=O)C1CCN(S(=O)(=O)c2ccc3c(c2)NC(=O)C(C)O3)CC1 (stereo unspecified)
609 | Cc1cnc(C2CCC2)n1CC1CCN(C(=O)Nc2ccc3c(c2)OCCO3)C1 (stereo unspecified)
1080 | Cc1cccc(C)c1NC(=O)Cn1c(C)nc2c(sc3nc(-c4ccccc4)ccc32)c1=O
1040 | COc1ccc(C2Cn3nnc(-c4nc(-c5ccc(OC)c(F)c5)no4)c3CO2)cc1 (stereo unspecified)

RP-LC retention time [s] | SMILES
600 | Cc1cnc(CCC2CCCN2C(=O)CC(F)(F)F)n1C(C)C (stereo unspecified)
786 | CSC1=C(C#N)C(c2ccco2)C(C(=O)Nc2ccccc2C)=C(C)N1 (stereo unspecified)
859 | Cc1ccc(-c2cn3c(CC(=O)NCc4ccccc4C)csc3n2)cc1C
1120 | Cc1cc(NC(=O)C(=O)c2c[nH]c3ccccc23)ccc1Br
943 | COc1cccc(NC(=O)Cn2c(C)cc(-c3nnc(-c4ccc(F)cc4)o3)c2C)c1
597 | Cc1ccc(NC(=O)C2CCCN(c3cc(=O)n(C)c(=O)n3C)C2)nc1 (stereo unspecified)
764 | Cc1cc(-c2ccc(S(=O)(=O)N3CCC(C(=O)NCc4ccccc4)CC3)o2)n[nH]1
910 | CC(=O)c1cccc(NC(=O)Cn2c(=O)n(-c3ccc(F)cc3)c(=O)c3c2cc(C)n3C)c1
638 | Cc1noc(C)c1CC(=O)NCC12CCC=C1N(C)C(=O)CC2 (stereo unspecified)
854 | Cc1ccc(N(C)S(=O)(=O)c2ccc3c(c2)CCCC(=O)N3)cc1C
1040 | CCCNC(=O)N1CC(Oc2cccc(-c3nc(-c4ccccc4)no3)c2)C1
1150 | O=C(Nc1ccccc1)N1CC(Oc2ccc(-c3nc(-c4ccccc4)no3)cc2)C1
676 | O=C(CCC1CCN(c2cc(NC3CC3)ncn2)CC1)NCc1ccccc1Cl
845 | O=C(Cc1cccs1)Nc1nnc(-c2ccccc2Cl)s1
737 | O=C(c1ccc(-c2cccs2)nc1)N1CCCC1
594 | O=C(NCCCn1ccnc1)C1CC(=O)N(CCc2c[nH]c3ccc(F)cc23)C1 (stereo unspecified)
672 | CC(=O)CCCCn1cnc2c1c(=O)n(C)c(=O)n2C
1180 | COc1ccc2c(c1)CCc1sc(NC(=O)c3cccc(Cl)c3)nc1-2
740 | Cc1nnc(-c2ccc3ccn(CC(=O)NC4CCCC4)c3c2)o1
705 | CCC(C(=O)Nc1ccc(-c2cn3ccc(C)nc3n2)cc1)c1ccccc1 (stereo unspecified)

Second part, the compound before the results:

SMILES | RP-LC retention time [s]
Cc1cc(C)c(S(=O)(=O)NCCn2c(C)cnc2C2CC2)cc1C | 659
O=C(NCc1ccccn1)C1(CCO)CCN(c2ncccn2)C1 (stereo unspecified) | 522
O=C1CC(c2ccccc2)Oc2ccccc21 (stereo unspecified) | 932
Cc1cccc(-c2nc(N)n(C(=O)C3CC3)n2)c1 | 885
Cc1cccc(-c2nnc(-c3cc(S(=O)(=O)N4CCCC4)ccc3Cl)o2)c1 | 1110
O=C(Nc1ccccc1)N1CCc2nc[nH]c2C1 | 560
Cc1ccc(S(=O)(=O)N2CCC3(CC2)NCCN=C3NCc2ccccc2F)cc1C | 750
COc1cccc(N2CCN(c3ccnc(SCC(=O)Nc4ccc(F)cc4F)n3)CC2)c1 | 804
CCc1cc(C(=O)Nc2cc(C)cc(C)c2)nc2ccnn12 | 1140
Cc1ccc(N2CCC(NC(=O)NC(C)C)C2=O)cc1C (stereo unspecified) | 740
Cc1c(Cl)cccc1NC(=O)N1CCN(C2=CC3=NCC(C)N3C=N2)CC1 (stereo unspecified) | 632
Cc1ccc(S(=O)(=O)Cc2nc(-c3cccc(Br)c3)no2)cc1 | 1040
CCCCOc1ccc(C(=O)Nc2ccc(-c3cn4ccc(C)nc4n3)cc2)cc1 | 781
CC(C)(C)c1nc(N2CCCCC2)c2ccccc2n1 | 723
CCCc1cc(N2CCN(C(=O)c3ccc(C)s3)CC2)nc2nnc(C)n12 | 643
Cc1ccc(-n2cc3c(c(C(=O)Nc4ccc(C)cn4)c2=O)CC(C)(C)CC3=O)cc1 | 961
COc1ccc(OC)c(NC(=O)NCC(c2cccnc2)c2c[nH]c3ccccc23)c1 (stereo unspecified) | 662
CCOc1cccc2cc(C(=O)Nc3ccc4c(c3)C(=O)N(C)C4=O)oc12 | 906
CN1CCc2cc(C(CNS(=O)(=O)c3ccccc3F)N3CCCC3)ccc21 (stereo unspecified) | 573
N#Cc1cc2c(nc1SCC(=O)N1CCOCC1)CCCC2 | 798
Cc1ccc(Cl)cc1NC(=O)NCC1CCOCC1 | 750
COc1cccc(-c2nnc(Cc3nc(-c4cccc(Br)c4)no3)o2)c1 | 1090
COc1cccc(-n2c(=O)c(C(=O)NC3CCCCC3)c(O)c3cccnc32)c1 | 1280
CCN1CCc2nc(-c3ccc(F)cc3)n(CC(=O)N3CCc4ccccc4C3)c(=O)c2C1 | 635
C=CCN1C(=O)COc2ccc(-c3nc(NC(=O)c4ccccc4Cl)sc3C)cc21 | 1010

SMILES | RP-LC retention time [s]
Cc1ccc(NC(=O)N(C)CCc2noc(COc3ccccc3)n2)cc1C | 947
CCN1CCN(S(=O)(=O)c2cccc(-c3nnc(-c4ccc(C)cc4)o3)c2)CC1 | 682
CC(C)c1nc2c(c(=O)n1CC(=O)NCc1ccccc1)CN(Cc1ccccc1)CC2 | 659
CCn1cc(-c2nc(C)c(C(=O)NCc3ccc(F)cc3)s2)c2cccnc21 | 902
CCc1sc(NC(=O)c2sc(C)nc2C)nc1-c1ccc(Br)cc1 | 1160
C=Cc1ccc(Cn2cccc(S(=O)(=O)N3CCCC3)c2=O)cc1 | 886
Cc1cccc(OCC(=O)N2C[C@@H](F)C[C@H]2C(=O)N2CCc3ccccc32)c1 | 878
Cc1cccc(C2(O)C(=O)N(CC(=O)N(C)c3ccccc3)c3ccccc32)c1 (stereo unspecified) | 614
COc1ccc(Cl)cc1NC(=O)NC1CCN(c2ccc(F)cc2)C1=O (stereo unspecified) | 899
C#CCOCC1CN(c2ccccc2)C(=O)O1 (stereo unspecified) | 833
COc1ccc(NC(=O)C2CC2)c2ccccc12 | 729
O=C(Cc1nnc(-c2ccc3ncccc3c2)o1)N1CCN(C2CCCCC2)CC1 | 574
CCNC(=O)CN1C(=O)C2CCCCN2c2ccc(S(=O)(=O)N(CC)CC)cc21 (stereo unspecified) | 804
CC1CCN(C(=O)CN2C(=O)CCCc3cc(S(=O)(=O)N4CCC(C)CC4)ccc32)CC1 | 987
Cc1cc2ncn(CC3CCN(C(=O)c4ccsc4)CC3)c2cc1C | 583
CC(=O)c1cccc(NC(=O)Cn2c(-c3cnccn3)nc(C)c(C)c2=O)c1 | 650
O=C(NCCc1c[nH]c2ccccc12)c1nnc2n(c1=O)CCN2c1ccc(F)cc1 | 692
CCc1noc(NC(C)=O)c1-c1ccc(OC)c(S(=O)(=O)Nc2cccc(F)c2)c1 | 794
Cc1cc(C)c(S(=O)(=O)NC2CCCN(c3ccc(=O)n(C)n3)C2)c(C)c1 (stereo unspecified) | 844
O=C(Cn1nc(C(=O)N2CCCCC2)c2ccccc21)Nc1nc2ccc(Cl)cc2s1 | 969
O=C(NCCN1CCOCC1)C1CCCN(c2ncnc3c2nc2n3CCCCC2)C1 (stereo unspecified) | 575
CCC(=O)Nc1cc2c(cc1S(=O)(=O)c1ccccc1)n(C)c(=O)n2C | 710
CCN(CC)CCNC(=O)Cc1noc2ccc(C)cc12 | 604
CCCCCn1c(=O)c2ccccc2n(Cc2nc(-c3ccc(OC(F)(F)F)cc3)no2)c1=O | 739
NC(N)=NCc1cccc(I)c1 | 442
